# According to patent publication US20260001875A1, “AMINOPYRIMIDINYL DERIVATIVES FOR THE TREATMENT OF PARKINSON'S DISEASE” (UNIVERSITY OF DUNDEE, priority 2022, published 2026):
# “Also recorded” adds a separate entry of the source. Read-outs that look alike come from different tables or passages of the source.
# Experiments:
# Rab10 pThr73 = assay: Rab10 Thr73 dephosphorylation (immunoblot) in WT MEFs; assay type: cell-based, mouse; details: for inhibition at 0.033 µM / inhibition at 1 µM: read-out: pRab10 inhibited in WT MEFs; for EC50: dose response, read-out: WT MEFs pRab10-dephosphrylation EC50
# How it was run: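 Wild-type mouse embryonic fibroblasts in 6-well plates were treated with LRRK2 PROTACs, with two biological replicates per condition. Cells were washed in PBS and lysed on ice in buffer containing phosphatase and protease inhibitors plus 1% Triton X-100, then clarified at 15,000 g. Rab10 Thr73 phosphorylation was measured by quantitative immunoblotting of 15 to 20 μg protein on 4-12% Bis-Tris gels.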
# LRRK2 pSer935 = assay: LRRK2 Ser935 dephosphorylation (immunoblot) in LRRK2^G2019S MEFs; assay type: cell-based, mouse; details: for EC50: Mus musculus, dose response; for T1/2 GS-pSer935-LRRK2: LRRK2^G2019S MEFs
# Protocol: Western blot degradation assays for the LRRK2 protacs were performed with WT and PD-associated LRRK2 [G2019S] mouse embryonic fibroblasts (MEFs). The second-generation PROTACs were tested in parallel with the first generation PROTACs SD75, SD82, and SD100. The compounds were tested at 33 nM or […] concentrations for 4 hours or 24 hours, running two biological replicates per condition and achieving quantifications representative of both replicates. Analysis by quantitative immunoblotting was performed with readouts of the total LRRK2 (antibody recognizes epitope in C-terminus of protein), Rab10 pThr73 (physiological substrate) and LRRK2 pSer935 (biomarker phosphorylation site).
# Primary MEFs were generated as described in a previous study (Wiggin et al., Mol. Cell Biol. 2002 April; 22(8):2871-81.). Briefly, the uterine horn was collected from adult female mice at day E12.5 and transferred to a 10 cm tissue culture dish containing cold PBS. Two forceps were used to tear the yolk sacs to isolate each embryo. Forceps were cleaned thoroughly with 70% ethanol between each embryo isolation. The embryos were culled, and a tissue piece was collected in a PCR tube for genotyping. The red tissue of the embryo, which grows to become the heart and liver, was removed. The remainder of the embryo was minced with a scalpel blade and incubated with 7.5 ml trypsin-EDTA solution for 10 minutes in a 37° C. tissue culture CO2 incubator. The dish was removed from the incubator and checked under a light microscope for single cells. 7.5 ml complete media was added to the trypsinised cells, and the cell suspension was transferred to a 15 ml Falcon tube, centrifuged at 1200 rpm for 5 minutes at room temperature. The trypsin was aspirated, the cell pellet was resuspended in 5 ml fresh complete media, and the cell suspension was plated in a 60 mm tissue culture dish and incubated in a 37° C., 5% CO2 tissue culture incubator. The MEFs at this stage were considered as passage 0 and were passaged and expanded for experimental use once the genotype was confirmed by allelic sequencing and immunoblotting. MEFs were cultured in Dulbecco's modified Eagle medium (DMEM) containing 10% (v/v) fetal bovine serum (FBS), 2 mM L-glutamine, 100 U/ml penicillin, and 100 μg/ml streptomycin supplemented with 1× non-essential amino acids and 1 mM sodium pyruvate.
# Culturing and passaging of adherent cell lines were carried out using aseptic technique in CL1 or CL2 (for PBMC isolation) biological safety cabinets. All cells were incubated in a 37° C. incubator with 5% CO2. Cell lines were regularly tested for mycoplasma contamination. For western blot assay, the cells were seeded in 6-well plates. After treating with testing compounds at indicated concentrations and time period, the media was removed and the cells were washed with PBS and lysed in 100 μl ice-cold complete lysis buffer containing 50 mM Tris-HCl pH 7.4, 1 mM EGTA, 10 mM 2-glycerophosphate, 50 mM sodium fluoride, 5 mM sodium pyrophosphate, 270 mM sucrose, supplemented with 1 μg/ml microcystin-LR, 1 mM sodium orthovanadate, complete EDTA-free protease inhibitor cocktail (Roche) and 1% (v/v) Triton X-100. The cells were immediately placed on ice and were scraped and collected into 1.5 ml Eppendorf tubes. Cell lysates were incubated on ice for 10 minutes prior to centrifugation at 15,000 g at 4° C. for 15 minutes. The cell pellet was discarded, and supernatant was collected for analysis by quantitative immunoblotting. For long term storage, the supernatant was flash frozen and stored at −80° C. Protein concentrations of cell lysates were determined using the Bradford assay.
# Cell lysates containing a quarter of a volume of 4× NuPAGE LDS sample buffer (NP0007) supplemented with 5% β-mercaptoethanol, were heated at 95° C. for 5 minutes. […]
# VHL = VHL (Homo sapiens, UniProt P40337); assay: Fluorescence polarization competitive binding assay; details: for Ki: displacement of FAM-labelled HIF-1α peptide from VCB
# Protocol: FP competitive binding assays were performed following the method described previously (Bond et al, J. Med. Chem. 2021, 64 (20), 15477-15502.). All the measurements were taken on a PHERstar (BMG LABTECH) plate reader installed with a FP filter that sets excitation and emission wavelengths at 485 nm and 520 nM separately. Each well of 384-well plate (Coring 3575) contains 10 nM VCB protein, 5 nM FAM-lableled HIF-1α peptide (FAM-DEALAHyp[…], “JC9”), and decreasing concentrations of PROTACs (14 concentrations with 2-fold serial dilution starting from 250 μM) in FP assay buffer (100 mM Bis-Tris propane, 100 mM NaCl, 1 mM TCEP, pH 7) with a final DMSO concentration of 5%. The control wells containing the VCB and JC9 with no compound are set as the maximum signals (zero displacement). And the control wells containing JC9 in the absence of protein are set as the minimum signals. Control values were used to obtain the percentage of displacement which was graphed against Log [Compound]. Average IC50 values were determined for each titration using nonlinear regression analysis with Prism (v.9.3.1).
# LRRK2^R1441C = LRRK2^R1441C (Mus musculus, UniProt Q5S006, R1441C); assay: Western blot LRRK2 degradation in LRRK2^R1441C MEFs; assay type: cell-based; details: 4 h treatment
# [1] = Mus musculus, 33 nM/4 h treatment
# [2] = Mus musculus, 33 nM/24 h treatment
# [3] = Mus musculus, 1 μM/4 h treatment
# [4] = Mus musculus, 1 μM/24 h treatment
# [5] = Mus musculus, time course at 300 nM, WT MEFs
smiles,measurement,setting,value
CNc1nc(Nc2ccc(C(=O)N3CCN(C[C@H]4CC[C@@H](CSC(C)(C)[C@H](NC(=O)C5(F)CC5)C(=O)N5C[C@H](O)CC5C(=O)NCc5ccc(-c6scnc6C)cc5)CC4)CC3)cc2OC)ncc1Cl (some centres unmarked) [XL01134],inhibition at 0.033 µM,Rab10 pThr73; [1],0 to 40%
same,inhibition at 0.033 µM,Rab10 pThr73; [2],0 to 60%
same,inhibition at 1 µM,Rab10 pThr73; [3],10 to 95%
same,inhibition at 1 µM,Rab10 pThr73; [4],30 to 100%
same,EC50,"Rab10 pThr73; Mus musculus, 4 h treatment",74 nM
same,Dmax at 0.3 µM,Rab10 pThr73; [5],68%
same,T1/2 of Rab10 dephosphorylation (WT),"Rab10 pThr73; time course at 300 nM, WT MEFs",2.1 h
same,EC50,LRRK2 pSer935; 4 h treatment,5 nM
same,T1/2 GS-pSer935-LRRK2,LRRK2 pSer935; time course at 300 nM,0.3 h
same,Ki,VHL,160 nM
"CNc1nc(Nc2ccc(C(=O)N3CCN(C[C@H]4CC[C@H](CSC(C)(C)[C@H](NC(=O)C5(F)CC5)C(=O)N5C[C@@H](O)CC5C(=O)NCc5ccc(-c6scnc6C)cc5)CC4)CC3)cc2OC)ncc1Cl (stereo partly drawn) [Cis-XL01126, (2S,4S)-1-((R)-3-((((1r,4R)-4-((4-(4-((5-chloro-4-(methylamino)pyrimidin-2-yl)amino)-3-methoxybenzoyl)piperazin-1-yl)methyl)cyclohexyl)methyl)thio)-2-(1-fluorocyclopropane-1-carboxamido)-3-methylbutanoyl)-4-hydroxy-N-(4-(4-methylthiazol-5-yl)benzyl)pyrrolidine-2-carboxamide]",LRRK2^R1441C degradation (in words),LRRK2^R1441C,cannot degrade LRRK2^R1441C
same,Ki,VHL,> 50000 nM
same,binding to VHL (in words),VHL; fluorescence polarization,does not bind to VHL E3 ligase; also recorded: did not displace the fluorescent tracer
"CNc1nc(Nc2ccc(C(=O)N3CCN(C[C@H]4CC[C@H](CSC(C)(C)[C@H](NC(=O)C5(F)CC5)C(=O)N5C[C@H](O)CC5C(=O)NCc5ccc(-c6scnc6C)cc5)CC4)CC3)cc2OC)ncc1Cl (stereo partly drawn) [XL01126, (2S,4R)-1-((R)-3-((((1R,4R)-4-((4-(4-((5-chloro-4-(methylamino)pyrimidin-2-yl)amino)-3-methoxybenzoyl)piperazin-1-yl)methyl)cyclohexyl)methyl)thio)-2-(1-fluorocyclopropane-1-carboxamido)-3-methylbutanoyl)-4-hydroxy-N-(4-(4-methylthiazol-5-yl)benzyl)pyrrolidine-2-carboxamide]",inhibition at 0.033 µM,Rab10 pThr73; [2],0 to 60%
same,Dmax at 0.3 µM,Rab10 pThr73; [5],84%
same,EC50,LRRK2 pSer935; 4 h treatment,9 nM
same,T1/2 GS-pSer935-LRRK2,LRRK2 pSer935; time course at 300 nM,0.3 h
same,Dmax of LRRK2^R1441C degradation,LRRK2^R1441C; dose response,80-90%
same,Ki,VHL,908 to 5950 nM
"CNc1nc(Nc2ccc(C(=O)N3CCN(CCOCCOCCSC(C)(C)[C@H](NC(=O)C4(F)CC4)C(=O)N4C[C@H](O)C[C@H]4C(=O)NCc4ccc(-c5scnc5C)cc4)CC3)cc2OC)ncc1Cl [SD75, (2S,4R)-1-((R)-3-((2-(2-(2-(4-(4-((5-chloro-4-(methylamino)pyrimidin-2-yl)amino)-3-methoxybenzoyl)piperazin-1-yl)ethoxy)ethoxy)ethyl)thio)-2-(1-fluorocyclopropane-1-carboxamido)-3-methylbutanoyl)-4-hydroxy-N-(4-(4-methylthiazol-5-yl)benzyl)pyrrolidine-2-carboxamide]","Selectivity Index (pRab10 dephosphorylation, WT vs G2019S MEFs)",Rab10 pThr73; 24 h,6.0
same,inhibition at 0.033 µM,Rab10 pThr73; [1],0 to 25%
same,inhibition at 1 µM,Rab10 pThr73; [3],18 to 90%
same,inhibition at 1 µM,Rab10 pThr73; [4],30 to 90%
same,Dmax at 1 µM,"Rab10 pThr73; Mus musculus, time course at 1000 nM, WT MEFs",41%
same,EC50,Rab10 pThr73; 24 h treatment,2270 nM
same,T1/2 of Rab10 dephosphorylation (WT),"Rab10 pThr73; time course at 1000 nM, WT MEFs",6.7 h
same,EC50,LRRK2 pSer935; 24 h treatment,279 nM
same,T1/2 GS-pSer935-LRRK2,LRRK2 pSer935; time course at 1000 nM,1.4 h
same,Ki,VHL,820 nM
